Reference: patent US6369109B1, “Betulinic acid and derivatives thereof useful for the treatment of neuroectodermal tumor” (Deutsches Krebsforschungszentrum Stiftung des Offentlichen …, priority 1998, dated 2002)
Entries after “also recorded” stand apart in the source; their conditions may differ. Residues, ends and D or L forms follow the SMILES beside them. *: point of attachment. Cbz = O=C(OCc1ccccc1)*; CH2F = FC*

Assays:
[1] = test system: mitochondria isolated from SHEP cells; test: Mitochondrial membrane potential of isolated mitochondria (DiOC6(3)); type: biochemical, human; conditions: FIG. 7, 12D; for effect of inhibitor on betulinic acid-induced Δψm loss in isolated mitochondria: 50 μM bongkrekic acid or 60 μM zVAD-fmk
Method: For isolation of mitochondria, cells (3×10^5 per sample) were washed twice with ice-cold PBS and resuspended with five volumes of buffer A (50 mM Tris, 1 mM EGTA, 5 mM 2-mercaproethanol, 0.2% BSA, 10 mM KH2PO4, pH 7.6, 0.4 M sucrose) and allowed to swell on ice for 20 min. Cells were homogenized with 30 strokes of a Teflon homogenizer and centrifuged at 10000 g for 10 min at 4° C. The resulting pellets were resuspended in buffer B (10 mM KH2PO4, pH 7.2, […] mannitol, 0.1% BSA). Mitochondria were separated by sucrose gradient (lower layer: 1.6 M sucrose, 10 mM KH2PO4, pH 7.5, 0.1% BSA; upper layer: 1.2 M sucrose, 10 mM KH2PO4, pH 7.5, 0.1% BSA). Interphases containing mitochondria were washed with buffer B at 18000 g for 10 min at 4° C. and the resulting mitochondrial pellets were resuspended in buffer B. For preparation of cytosolic extracts, cells (1×10^8 per sample) were washed twice with ice-cold PBS, resuspended with one volume of buffer A and allowed to swell on ice for 20 min. Cells were homogenized with 30 strokes of a Dounce homogenizer and centrifuged at 15000×g for 15 min ax 4° C. The protein concentration of mitochondria or cytosolic extracts was determined by Bradford method (Bio-Rad). For isolation of nuclei, cells were washed twice in ice-cold PBS, resuspended in 10 volumes of buffer C (10 mM PIPES, pH 7.4, 10 mM KCl, 2 mM MgCl2, 1 mM DDT, 1 mM PMSF, 10 μM cytochalasin B), allowed to swell on ice for 20 min and homogenized using a Teflon homogenizer. Homogenates were layered over 30% sucrose in buffer C and centrifuged at 800 g for 10 min. The resulting nuclear pellets were resuspended in buffer C and washed three times. Nuclei were scored at −80° C. in aliquots of 10^8 nuclei/ml until required. AIF-containing mitochondrial supernatant was prepared as described in Susin et aL, 1997, J. Exp. Med. 186, 5-37 and Susin et al., 1996, J. Exp. Med. 184, 1331-41.
Mitochondria (5×10^5/ml) were treated with 10 μg/ml betulinic acid for 30 min, incubated with 3,3′-dihexyloxacarbocyanide iodide (DiOC6(3), 40 nM, Molecular Probes, Inc., Eugene, Oreg.) for 15 min at 37° C. and analyzed on a flow cytometer (FACS Vantage, Becton Dickinson). As a control, cells were treated with the uncoupling agent carbonyl cyanide m-chlorophenylhydrazone (mCICCP, 200 μM, Sigma).

[2] = test system: isolated nuclei with mitochondria from SHEP cells; test: Cell-free system of apoptosis: nuclear fragmentation of isolated nuclei; type: biochemical, human; conditions: for effect of inhibitor on betulinic acid-induced fragmentation of nuclei / effect of inhibitor on nuclear fragmentation by mitochondria from drug-pretreated cells / effect of inhibitor on DNA fragmentation by supernatants from betulinic acid-treated mitochondria: 50 μM bongkrekic acid or 60 μM zVAD-fmk; for effect of inhibitor on DNA fragmentation by supernatants from betulinic acid-treated mitochondria: FIG. 10B
Method: (§1) For determination of nuclear fragmentation, nuclei (10^3/μl) were incubated with mitochondria (1 μg/μl) in buffer D (10 mM HEPES, pH 7.4, 50 mM NaCl, 2 mM MgCl2, 5 mM EGTA, 1 mM DDT, 2 mM ATP, 10 mM phosphocreatine, 50 μg/ml creatine kinase, 10 μM cytochalasin B) for 2 h at 37° C. Nuclei were stained with propidium iodide ([…]) and analyzed by flow cytometry. For determination of caspase activation, cytosolic extracts (2 μg/μl) were incubated with mitochondria (1 μg/μl), cytochrome c (0.1-100 μM) or AIF-containing mitochondrial supernatant (0.5 μg/μl) in buffer D for 2 h at 37° C. Partially purified AIF (cytochrome c-free) was prepared as previously described (0.5 mg/ml, Susin et al., 1997, J. Exp. Med. 186, 5-37; Susin et al., 1996, J. Exp. Med. 184, 1331-41). Proteins were separated by 15% SDS-PAGE and Western blot analysis was performed as described above.
Mitochondria isolated from SHEP cells, transfected with bcl-2 or bcl-XL or a neomycin resistance vector only, were incubated for 6 h with nuclei and 0.1-10 μg/ml betulinic acid (FIG. 8A) or 5 mM atractyloside (FIG. 8B) in the presence or absence of 50 μM bongkrekic acid or 60 μMZ-VAD-fnk. Nuclei incubated with either mitochondria from vector only cells or with betulinic acid were used as control. Nuclear apoptosis was determined by FACS analysis of propidium iodide stained DNA content.
SHEP cells transfected with bcl-2 or bcl-XL or a neomycin resistance vector only were treated with 10 μg/ml betulinic acid or 5 mM atractyloside for 6-24 h (FIG. 8C). Mitochondria were isolated and incubated with nuclei in the presence or absence of 50 μM bongkrekic acid or 60 μMZ-VAD-fmk. Nuclei incubated with either mitochondria front vector only cells or with betulinic acid were used as control. Nuclear apoptosis was determined by FACS analysis of propidium iodide stained DNA content.
Mitochondria isolated from SHEP cells transfected with bcl-2, Bcl-XL or a neomycin resistance vector only were treated with 10 μg/ml betulinic acid or 5 mM atractyloside for 0.5 h in the presence or absence of 50 μM bongkrekic acid or 60 μM zVAD-fmk. Mitochondrial supernatants obtained by high speed centrifugation were incubated with nuclei for 2 h at 37° C. Nuclei incubated with supernatants of untreated mitochondria were used as control.. Nuclear apoptosis was determined by FACS analysis of propidium iodide stained DNA content.
as §1, with “cytometry (Susin et al., 1997 Exp. Cell Res. 236:397-403).” for “cytometry.”, “(10” for “(0.1-100”, “C.” for “C. Partially purified AIF (cytochrome c-free) was prepared as previously described (0.5 mg/ml, Susin et al., 1997, J. Exp. Med. 186, 5-37; Susin et al., 1996, J. Exp. Med. 184, 1331-41).”, “before.” for “above.”
SHEP cells transfected with Bcl-2 or BCl-XL or a neomycin resistance vector only (Neo) were treated with 0.5 μg/ml Doxorubicin or 10 μg/ml Betulinic acid for 48 h (A) or 24 h (B and C). Cells transfected with a neomycin resistance vector only (Neo) were treated in the presence or absence of 50 μm BA or 60 μm zVAD-fmk. Nuclear apoptosis was determined by FACS analysis or propidium iodide-stained DNA content in intact cells (A) or in a CFS incubating isolated nuclei with mitochondria from cells treated with Doxo or betulinic acid (C). ΔΨm was determined by staining cells with the potential-sensitive fluorochrome DiOC6(3) (B).

Row | Compound | effect of inhibitor on betulinic acid-induced Δψm loss in isolated mitochondria [1] | effect of inhibitor on betulinic acid-induced fragmentation of nuclei ([2]; FIG. 8A) | effect of inhibitor on nuclear fragmentation by mitochondria from drug-pretreated cells ([2]; FIG. 8C, 12C) | effect of inhibitor on DNA fragmentation by supernatants from betulinic acid-treated mitochondria [2] | Δψm of isolated mitochondria ([1]; mitochondria from wild type or vector-only SHEP cells, 10 μg/ml betulinic acid, 30 min) | nuclear fragmentation by mitochondria isolated from drug-pretreated cells ([2]; 10 μg/ml betulinic acid or 0.5 μg/ml doxorubicin, FIG. 8C, 12C) | nuclear DNA fragmentation, mitochondria plus nuclei plus drug ([2]; Neo control mitochondria, 0.1-10 μg/ml betulinic acid or 5 mM atractyloside, 6 h, FIG. 8A, 8B)
1 | CO[C@H](C/C=C\C=C\CC/C=C/C[C@H](C)/C=C/C(=C\C(=O)O)CC(=O)O)/C(C)=C\C=C(/C)C(=O)O [bongkrekic acid] | inhibited | inhibited | again blocked | also blocked |  |  | 
2 | COC(=O)C[C@H](NC(=O)[C@H](C)NC(=O)[C@@H](NC(=O)OCc1ccccc1)C(C)C)C(=O)CF [zVAD-fmk, benzyloxycarbonyl-Val-Ala-Asp-Fluoromethylketone] (Cbz-Val-Ala-Asp(OMe)-CH2F) | did not interfere; also recorded: not blocked | inhibited | again blocked | also blocked |  |  | 
3 | COc1cccc2c1C(=O)c1c(O)c3c(c(O)c1C2=O)C[C@@](O)(C(=O)CO)C[C@@H]3O[C@H]1C[C@H](N)[C@H](O)[C@H](C)O1 [doxorubicin] |  |  |  |  | did not induce mitochondrial perturbations | induced nuclear DNA fragmentation | No DNA fragmentation was observed
